# Like-named read-outs stand apart in the source and are kept apart here.
# Key:
# [1] = system: colon cancer cells HCT116; test: Inhibitory activity against proliferation of cancer cells, SRB (Sulforhodamine B) analysis; assay type: cell-based; conditions: read-out: Inhibitory conc. against cancer cell growth (EC50 μM) HCT116
# Description: Cancer cells were inoculated into a 96-well microplate at a concentration of 1×10^3˜3×10^3 cells/well and incubated under the condition of 37° C., 5% CO2 for 24 hrs. After the incubation was completed, 0.2, 1, 5, 25, or 100 μM of each of the compounds of Examples was added to the plate, and then the reactant was incubated for 48 hrs. After the substrate was stained with SRB, the anti-cancer activity was determined by comparing the amount of protein in the cells treated with the compound of Examples with that of protein in untreated cells.
# Specifically, after the incubation was completed, the culture medium was removed from each well, and the cells were washed 3 times with PBS (pH 7.4). Then, a solution of 50% trichloroacetic acid (TCA) was added to each well in an amount of 50 μl/well at 4° C. for 1 hr to fix them. Then, the microplate was washed 5 times with distilled water and dried in air. […]
# 50 μl of a staining solution prepared by dissolving 0.4% SRB in 1% acetic acid was added to the wells, and the microplate was kept at room temperature for 1 hr. The well plate was then washed 5 times with 1% acetic acid to remove unbound SRB and dried in air. The stained cells were treated with 150 μl/well of 10 mM Tris-HCl solution (pH 10.5) to elute SRB from the cells, and the absorbance of the cells treated with the compounds of examples at 540 nm was measured, based on the absorbance of an untreated cell. The EC50 value representing inhibition of the cancer cell growth by the extent of 50% was calculated from the measured absorbance, and the results are shown in Table 6.
# HDAC = test: Inhibitory activity against HDAC (BIOMOL Quantizyme Assay system, Fluor de Lys substrate); assay type: biochemical; conditions: HeLa nuclear extract as source of HDAC enzymes, enzyme reaction 1 hr
# How it was run: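 HeLa nuclear extract served as HDAC source (100 nM final) with Fluor de Lys substrate, reacted 1 h. Development used Fluor de Lys developer containing 2 µM trichostatin A for 15 min at room temperature, read at ex 355/em 460 nm.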
# [2] = Homo sapiens, HCT-116, Table 8, 48 hrs incubation with compound
# [3] = Table 7, formula (4) series, read-out: HDAC Inhibitory conc. (IC50, μM/ml)
Molecule,"EC50 [1, 2] [µM]",IC50 (HDAC; [3]) [µM],"EC50 ([1]; Table 6, 48 hrs incubation with compound) [µM]","IC50 (HDAC; Table 5, formula (3) series, read-out: Inhibitory conc. (IC50, μM/ml)) [µM]"
"COCC(C)NC/C(=C/c1ccc(C(=O)NO)cc1)COc1cccc2ccccc12 (stereo not shown) [Example 4-13, (Z)—N-hydroxy-4-(3-(1-methoxypropan-2-ylamino)-2-((naphthalen-1-yloxy)methyl)prop-1-enyl)benzamide]",< 0.2,0.005,–,–
"CC(C)N1CCC(NC/C(=C/c2ccc(C(=O)NO)cc2)COc2cccc3ccccc23)CC1 [Example 4-15, (Z)—N-hydroxy-4-(3-(1-isopropylpiperidin-4-ylamino)-2-((naphthalen-1-yloxy)methyl)prop-1-enyl)benzamide]",0.4,0.014,–,–
"O=C(NO)c1ccc(/C=C(/CNCCCn2ccnc2)COc2cccc3ccccc23)cc1 [Example 4-16, (Z)-4-(3-(3-(1H-imidazol-1-yl)propylamino)-2-((naphthalen-1-yloxy)methyl)prop-1-enyl)-N-hydroxybenzamide]",0.7,0.003,–,–
"O=C(NO)c1ccc(/C=C(/CNCCc2ccc(O)cc2)COc2cccc3ccccc23)cc1 [Example 4-17, (Z)—N-hydroxy-4-(3-(4-hydroxyphenethylamino)-2-((naphthalen-1-yloxy)methyl)prop-1-enyl)-benzamide]",< 0.2,0.003,–,–
"CN(C)CC(C)(C)CNC/C(=C/c1ccc(C(=O)NO)cc1)COc1cccc2ccccc12 [Example 4-18, (Z)-4-(3-(3-(dimethylamino)-2,2-dimethylpropylamino)-2-((naphthalen-1-yloxy)methyl)prop-1-enyl)-N-hydroxybenzamide]",0.31,0.006,–,–
"CC(C)N(CCNC/C(=C/c1ccc(C(=O)NO)cc1)COc1cccc2ccccc12)C(C)C [Example 4-19, (Z)-4-(3-(2-(diisopropylamino)ethylamino)-2-((naphthalen-1-yloxy)methyl)prop-1-enyl)-N-hydroxybenzamide]",0.8,0.016,–,–
"COCCNC/C(=C/c1ccc(C(=O)NO)cc1)COc1cccc2ccccc12 [Example 4-20, (Z)—N-hydroxy-4-(3-(2-methoxyethylamino)-2-((naphthalen-1-yloxy)methyl)prop-1-enyl)-benzamide]",< 0.2,0.01,–,–
"O=C(NO)c1ccc(/C=C(/CNCc2cccs2)COc2cccc3ccccc23)cc1 [Example 4-22, (Z)—N-hydroxy-4-(3-(naphthalen-1-yloxy)-2-((thiophen-2-ylmethylamino)methyl)prop-1-enyl)benzamide]",1.3,0.02,–,–
"COc1ccc(CCNC/C(=C/c2ccc(C(=O)NO)cc2)COc2cccc3ccccc23)cc1 [Example 4-23, (Z)—N-hydroxy-4-(3-(4-methoxyphenethylamino)-2-((naphthalen-1-yloxy)methyl)prop-1-enyl)-benzamide]",0.8,0.04,–,–
CN(C)c1ccc(CNC/C(=C/c2ccc(C(=O)NO)cc2)COc2cccc3ccccc23)cc1 [Example 4-24],0.5,0.011,–,–
(Z)-8-(4-Fluorophenethylamino)-N-hydroxy-7-((naphthalen-1-yloxy)methyl)oct-enamide [Example 3-9],–,–,0.4,0.003
